Measured values taken from ChEMBL document CHEMBL1139852, “A distinctive structural twist in the aminoimidazole alkaloids from a calcareous marine sponge: isolation and characterization of leucosolenamines A and B” (J Nat Prod, 2007).

Columns and labels:
Type in all cases: cell-based
MC-38 [1] = assay: Cytotoxicity against mouse C38 cells at 7.8 ug/disk
[2] = Cytotoxicity against mouse CFU-GM cells at 7.8 ug/disk
[3] = Selective cytotoxicity for mouse C38 cells over CFU-GM cells at 7.8 ug/disk; conditions: mc-38
[4] = Cytotoxicity against mouse CFU-GM cells at 180 ug/disk
MC-38 [5] = assay: Cytotoxicity against mouse C38 cells at 180 ug/disk
[6] = Selective cytotoxicity for mouse C38 cells over CFU-GM cells at 180 ug/disk; conditions: mc-38

| SMILES | inhibition zone (IZ) (MC-38 [1]) [mm] | inhibition zone (IZ) [2] [mm] | inhibition zone (IZ) [3] [mm] | Activity [4] | Activity (MC-38 [5]) | inhibition zone (IZ) [6] [mm] | inhibition zone (IZ) [4] [mm] | inhibition zone (IZ) (MC-38 [5]) [mm] |
| --- | --- | --- | --- | --- | --- | --- | --- | --- |
| CO[C@@H](C(=O)N[C@H]1CCCCNC1=O)[C@H](O)[C@@H](O)[C@H](O)/C=C/C(C)C [BENGAMIDE E] | 21 | 16.5 | 4.5 |  |  |  |  |  |
| Cc1cn([C@H]2C[C@H](O)[C@@H](CO)O2)c(=O)[nH]c1=O [DOXRIBTIMINE] |  |  |  | Not Active | Not Active | 0 |  |  |
| Cn1c(/N=C2\NC(=N)N=C2Cc2ccc3c(c2)OCO3)c(N)c(=O)n(C)c1=O [LEUCOSOLENAMINE A] |  |  |  |  |  | 10.5 | 0 | 10.5 |
